The conditions of series [1]: clinically achievable concentrations, plasma; read-out: Cmax (reported / approximate, measured in plasma); cited from earlier work.
Series [2] deals with Gastric cancer cell line AGS. Briefly: Colorimetric cell proliferation and viability assay (CellTiter-Blue), AGS. The settings on record: 72 h, read-out: IC50, agent alone.
Series [3] relates to Gastric cancer cell line HGC-27. Kind of series: Colorimetric cell proliferation and viability assay (CellTiter-Blue), HGC-27. The following applies: Homo sapiens, HGC-27, 72 h, read-out: IC50, agent alone.

The structures appear in SMILES notation. pIC50: −log10 of the molar value.

With `O=c1[nH]cc(F)c(=O)[nH]1` [5-FU, 5-fluorouracil], in series [1], the Cmax was 60 to 200 µM. Further, the pIC50 was 4.00 in series [2] and 3.00 in series [3].

Regarding `COc1cc([C@@H]2c3cc4c(cc3[C@@H](O[C@@H]3O[C@@H]5CO[C@@H](C)O[C@H]5[C@H](O)[C@H]3O)[C@H]3COC(=O)[C@H]23)OCO4)cc(OC)c1O` [Etoposide], in series [1], the Cmax was about 34 µM. Moreover, the pIC50 in series [2] was 5.00; in series [3] it was 4.70.

Turning to `CCc1c2c(nc3ccc(OC(=O)N4CCC(N5CCCCC5)CC4)cc13)-c1cc3c(c(=O)n1C2)COC(=O)[C@]3(O)CC` [Irinotecan], in series [1], the Cmax was 1 to 10 µM. Further, the values for the pIC50 in series [2] and in series [3] were 4.70 and under 4.00, respectively.

As to `CC[C@]1(O)C[C@H]2CN(CCc3c([nH]c4ccccc34)[C@@](C(=O)OC)(c3cc4c(cc3OC)N(C=O)[C@H]3[C@@](O)(C(=O)OC)[C@H](OC(C)=O)[C@]5(CC)C=CCN6CC[C@]43[C@@H]65)C2)C1` [Vincristin], the figures for the negative logarithm of the IC50 (pIC50) in series [2] and in series [3] were under 6.00 and 6.00 to 7.00, respectively.

With `Cc1ccc(NC(=O)c2ccc(CN3CCN(C)CC3)cc2)cc1Nc1nc(-c2cccnc2)cs1` [masitinib, 4-(4-methylpiperazin-1-ylmethyl)-N-[4-methyl-3-(4-pyridin-3ylthiazol-2-ylamino)phenyl]benzamide], the pIC50 in series [2] and in series [3] was 5.00 to 5.30 in each case.

These data come from patent publication US20160175302A1 (AB SCIENCE, priority 2014, published 2016).
